Data set [1] can be described thus: Hydrophobicity by analytical RP-HPLC (% MeCN at peak elution). Type of data set: physicochemical. As for the experimental part:
Water was filtered by using an Evoqua LaboStar PRO TWF Ultra Pure Water System prior to use in high-performance liquid chromatography (HPLC). The retention time for each peptidomimetic was determined by analytical HPLC using a Phenomenex Luna C18(2) HST column (100 mm × 3 mm; particle size: 2.5 μm; pore size: 100 Å) on a Shimadzu Prominence and Shimadzu Nexera system using an aqueous MeCN gradient with 0.1% trifluoroacetic acid (TFA) added (eluent A: 5:95 MeCN–H2O + 0.1% TFA; eluent B: 95:5 MeCN–H2O + 0.1% TFA); a flow rate of 0.5 mL/min was used. For the elution of peptidomimetics, a linear gradient of 0% to 60% B over 10 min was used with UV detection at λ = 220 nm. The percentage MeCN at peak elution was calculated from the retention time (tR) by using the following formula:%MeCN = [0.95 × 0.6 × tR/10 + 0.05 × (1 − 0.6 × tR/10)] × 100%

The test system of data set [2] is E. faecium ATCC 19434. In words: microbe, parasite or virus in culture. In kind it is cell-based, Enterococcus faecium. The note with it: ATCC 19434, 24 h.
Data set [3] deals with E. faecium (MV388). In words: Membrane integrity, propidium iodide uptake by flow cytometry. Type of data set: cell-based, Enterococcus faecium. Conditions: peptidomimetics at MBC, nisin at MIC; 5 min. As for the experimental part: Membrane integrity was assessed by using a propidium iodide (PI) uptake assay, as previously described. In brief, 2 μL of stationary enterococcal cultures were transferred to Falcon round-bottom tubes (14 mL; Corning), each containing 2 mL fresh BHI medium. Cultures were grown to an OD600 of 0.2 at 37 °C with shaking (180 rpm). […] Then, 15 μL of culture was transferred into 980 μL filtered phosphate-buffered saline, and then stained for 5 min with 5 μL of 0.1 mg/mL PI. After staining, the red fluorescence levels (FL3 channel) in cells were recorded by using a BD Biosciences Accuri C6 flow cytometer (Becton Dickinson). The settings of the flow cytometer were as follows: 25,000 recorded events at an FSC threshold of 15,000, and medium flow rate. The gating of the stained cell population and analysis of flow cytometry data were performed in CFlow (BD Accuri). The assessment of membrane integrity was performed in three biological replicates for each condition.
Background: A flow cytometer gives signals particle by particle.

A further data set has as its system E. faecalis isolates. In kind it is cell-based, Enterococcus faecalis. Conditions: 24 h. As for the experimental part:
(§1) Overnight cultures of the enterococcal isolates were diluted in physiological saline (0.9% NaCl) to reach a turbidity of 0.5 McFarland units (Sensititre® nephelometer and the Sensititre® McFarland Standard). Bacterial suspensions were adjusted to 5 × 10^5 CFU/mL in MHB II or BHI broth containing two-fold dilutions of peptidomimetics or conventional antibiotics in a final volume of 100 µL. The plates were incubated for 24 h at 37 °C without shaking. […] All experiments were performed in three biological replicates.

A further data set has as its system E. faecalis (MV269). In kind it is cell-based, Enterococcus faecalis. Conditions: MV269, 24 h. The protocol:
(§2) The minimum bactericidal concentration (MBC) is defined as the lowest concentration of the peptidomimetics that kills 99.9% of the bacterial population. All experiments were performed in three biological replicates.

The subject of data set [4] is E. faecium (MV388). In kind it is cell-based, Enterococcus faecium. The note with it: MV388, 24 h. As for the experimental part:
as §2

The test system of another data set is E. faecalis ATCC 29212. Nature of the data set: microbe, parasite or virus in culture. Type of data set: cell-based, Enterococcus faecalis. Conditions: ATCC 29212, 24 h.
The next data set is described as follows: Hemolytic activity. Type of data set: cell-based, human. The note with it: human, human red blood cells (washed, 1% suspension), 37 °C, 1% red blood cell suspension. As for the experimental part:
(§3) A suspension of hRBCs (Single-donor human red blood cells—washed; catalogue No. IPLA-W3 from Innovative researchTM) was washed three times with PBS buffer and centrifuged for 5 min at 2500 rpm. A two-fold serial dilution of compounds in PBS buffer was prepared. Plates (conical-bottomed 96-well plates) with 3 replicate wells per dilution, containing 1% red blood cell suspension, were prepared and dosed with the test compound to achieve a final concentration of 400 μg/mL in a total volume of 100 μL. The plates were incubated (37 °C) for 60 min with mild agitation, and then the cells were pelleted by centrifugation at 1500 rpm for 5 min. Then, the supernatants (50 μL) were transferred to a fresh 96-well plate, and then the concentration of hemoglobin was detected by measuring the OD at 405 nm. The OD of cells incubated with 1% SDS achieved 100% hemolysis, while the OD of cells incubated with PBS buffer achieved 0% hemolysis. The concentration tested was 400 μg/mL (only average values are stated in Table 3). The percent hemolysis was calculated by using the formula:Hemolysis(%) = 100 × [(Asample − Aneg.control)/(Apos. control − Aneg.control)]

The next data set has as its system human red blood cells. In words: Hemolytic activity. Type of data set: cell-based. The note with it: 60 min, 37 °C, 1% red blood cell suspension. The protocol: as §3
Data set [5] concerns E. faecium and E. faecalis isolates. In words: MIC summarised over all isolates. The note with it: summary over all isolates. In kind it is cell-based, Enterococcus faecium and Enterococcus faecalis. As for the experimental part:
as §1

Another data set has as its system E. faecium isolates. Type of data set: cell-based, Enterococcus faecium. The note with it: 24 h. The protocol: as §1
Data set [6] relates to E. faecium ATCC 19434. Nature of the data set: Broth checkerboard assay with conventional antibiotics. In kind it is cell-based, Enterococcus faecium. As for the experimental part:
The strain culture preparation and final volume were the same as in the MIC assay. […] The plates were incubated for 24 h at 37 °C without shaking. […] All experiments were performed in two biological replicates.
To evaluate the effect of the combinations, the fractional inhibitory concentration index (FICI) was calculated for each combination according to:ΣFIC = FICA + FICB = (CA/MICA) + (CB/MICB)
The drug interaction was scored as follows: synergy—FICI ≤ 0.5; no interaction—FICI > 0.5–4; antagonism—FICI > 4 [40].

Data on three compounds can be found in publication PMC8197855, “Peptide/β-Peptoid Hybrids with Activity against Vancomycin-Resistant Enterococci: Influence of Hydrophobicity and Structural Features on Antibacterial and Hemolytic Properties” (International Journal of Molecular Sciences, 2021).

In brackets after ≈: the same amount, converted by molar mass.

With `CC(=O)N[C@@H](CCCCNC(=N)N)C(=O)N(CCC(=O)N[C@@H](CCCCN)C(=O)N(CCC(=O)N[C@@H](CCCCNC(=N)N)C(=O)N(CCC(=O)N[C@@H](CCCCN)C(=O)N(CCC(=O)N[C@@H](CCCCNC(=N)N)C(=O)N(CCC(=O)N[C@@H](CCCCN)C(=O)N(CCC(N)=O)[C@@H](C)c1ccccc1)[C@@H](C)C1CCCCC1)[C@@H](C)c1ccccc1)[C@@H](C)C1CCCCC1)[C@@H](C)c1ccccc1)[C@@H](C)C1CCCCC1` [Compound 5, Ac-[hArg-βNsce-Lys-βNspe]3-NH2], the “Hydrophobicity, Luna C18(2) HST (0–60% B; 10 min), retention converted into % MeCN” value (“Hydrophobicity … retention converted into % MeCN” for short) in [1] came out at 46.6 % MeCN. Further, the Minimum inhibitory concentration in the data set with E. faecium ATCC 19434 [2] is 4 µg/mL (≈ 1.98 µM); with E. faecalis ATCC 29212, 4 to 8 µg/mL. In addition, the “Propidium iodide (PI) uptake, membrane integrity” value (“Propidium iodide (PI) uptake” for short) in the data set on E. faecium (MV388) [3] is “less perturbation of membrane integrity”. Besides, the “MIC (range) against E. faecalis” value with E. faecalis isolates was in the range of 4 to 16 µg/mL. For the same compound, the Minimum bactericidal concentration turned out to be 16 µg/mL (≈ 7.91 µM) with E. faecalis (MV269) and 128 µg/mL (≈ 63.2 µM) with E. faecium (MV388) [4]. The hemolysis at 60 min, 400 µg/mL in the data set “Hemolytic activity” was under 10%. The “Hemolysis (at 400 µg/mL)” value with human red blood cells worked out at 9.4%.

Turning to `CC(=O)N[C@@H](CCCCNC(=N)N)C(=O)N(CCC(=O)N[C@@H](CCCCNC(=N)N)C(=O)N(CCC(=O)N[C@@H](CCCCNC(=N)N)C(=O)N(CCC(=O)N[C@@H](CCCCNC(=N)N)C(=O)N(CCC(=O)N[C@@H](CCCCNC(=N)N)C(=O)N(CCC(=O)N[C@@H](CCCCNC(=N)N)C(=O)N(CCC(N)=O)[C@@H](C)C1CCCCC1)[C@@H](C)C1CCCCC1)[C@@H](C)C1CCCCC1)[C@@H](C)C1CCCCC1)[C@@H](C)C1CCCCC1)[C@@H](C)C1CCCCC1` [Compound 2, Ac-[hArg-βNsce]6-NH2], the “Hydrophobicity … retention converted into % MeCN” value in data set [1] stood at 51.6 % MeCN. For the same compound, the Minimum inhibitory concentration is 2 µg/mL (≈ 0.922 µM) in the data set with E. faecium ATCC 19434 [2] and 2 to 4 µg/mL in the data set with E. faecalis ATCC 29212. The “Propidium iodide (PI) uptake” value with E. faecium (MV388) [3] is given as “significant accumulation of PI”. In data set [5], the “MIC (range) against all E. faecium and E. faecalis isolates” value lay in the range of 2 to 4 µg/mL. Also, the Minimum bactericidal concentration was 8 µg/mL (≈ 3.69 µM) with E. faecalis (MV269) and 4 to 8 µg/mL with E. faecium (MV388) [4]. The compound also displayed a hemolysis at 60 min, 400 µg/mL in “Hemolytic activity” of 98.4%.

Regarding `CCCCCCCC(=O)N[C@@H](CCCCN)C(=O)N(CCC(=O)N[C@@H](CCCCN)C(=O)N(CCC(=O)N[C@@H](CCCCN)C(=O)N(CCC(=O)N[C@@H](CCCCN)C(=O)N(CCC(=O)N[C@@H](CCCCN)C(=O)N(CCC(=O)N[C@@H](CCCCN)C(=O)N(CCC(N)=O)[C@@H](C)c1ccccc1)[C@@H](C)c1ccccc1)[C@@H](C)c1ccccc1)[C@@H](C)c1ccccc1)[C@@H](C)c1ccccc1)[C@@H](C)c1ccccc1` [Compound 10, Oct-[Lys-βNspe]6-NH2], the “Hydrophobicity … retention converted into % MeCN” value in data set [1] was determined as 47.2 % MeCN. The values for the Minimum inhibitory concentration in the data set with E. faecium ATCC 19434 [2] and with E. faecalis ATCC 29212 were 8 µg/mL (≈ 4.07 µM) and 8 to 16 µg/mL, respectively. The “Propidium iodide (PI) uptake” value in the data set with E. faecium (MV388) [3] is “less perturbation of membrane integrity”. The “MIC (range) against E. faecalis” value in the data set on E. faecalis isolates lay within 4 to 16 µg/mL. Besides, the “MIC (range or typical value) against E. faecium” value with E. faecium isolates lay in the range of 2 to 8 µg/mL. Further, the results for the Minimum bactericidal concentration in the data set on E. faecalis (MV269) and with E. faecium (MV388) [4] were 32 µg/mL (≈ 16.3 µM) and 16 µg/mL (≈ 8.15 µM), respectively. Further, the “Effect on the MIC of rifampicin” value in the data set on E. faecium ATCC 19434 [6] (compound supplemented at 0.25× MIC) is given as “no effect”. In the data set on E. faecium ATCC 19434 [6] (compound supplemented at 0.5× MIC), the “Reduction in the MIC of rifampicin” value is reported as 4–8 fold. The same compound returned a hemolysis at 60 min, 400 µg/mL in the data set “Hemolytic activity” of under 10%. For the same compound, in the data set on human red blood cells, the “Hemolysis (at 400 µg/mL)” value turned out to be 6.9%.
